Reference: patent publication US9170257B2 (priority 2012, dated 2015)

Assays:
[1] = in vivo; type: in vivo, Beagle dogs; settings: dog, in vivo, iv, 10 mg/kg
Description: (§1) The results and analysis for the study are presented for intravenous infusion dosing of a total dose of 10 mg/kg infused over a period of either 2 or 8 hours. Plasma levels of curcumin and its metabolite, THC were measured at timed intervals post-dosing.
For the 2 hour infusion, blood samples were taken at predose and 0.25, 0.5, 1.5 and at 2 hours during infusion and at 15 minutes post-infusion. For the 8 hour infusion, blood samples were taken at predose and 0.25, 0.5, 1.5, […] and at 8 hours during infusion and at 15 minutes post-infusion.
(§2) Bioanalysis was performed on two sets of samples, one set that was treated with phosphoric acid and one set that was not treated with phosphoric acid. […] Values that were below the limit of quantification were assigned a value of 0.
Plasma concentration vs. time profiles were analyzed using (unless otherwise stated) the data from 4 dogs. Plasma profiles for the test articles are presented as the mean data±SE of 4 dogs. Average plasma concentrations were used to perform the PK analysis. Plasma concentration vs. time profiles were analyzed and the PK parameters estimated using WinNonlin Version 5.2.1 employing the intravenous infusion model with first order elimination. Unless stated otherwise, the plasma concentration-time profiles for the test articles are presented as the mean data±SE of 4 dogs.

[2] = in vivo; type: in vivo, Beagle dogs; settings: dog, in vivo
Description: as §1, §2
(§3) Fifteen minutes following either the 2 hour or 8 hour infusion, blood, urine and bile samples were taken, prior to the dogs being necropsied and organs removed for the isolation of tissues. Multiple samples of tissue weighing approximately 1 gram were removed and snap frozen in the presence or absence of phosphoric acid (H3PO4). For all tissue samples, the levels of curcumin and THC were determined using a method developed by the Bioanalytical Department at Nucro-Technics. […] Values that were below the limit of quantification were assigned a value of 0. […] Tissue distribution data was analyzed using, unless stated, the data from 4 dogs and are presented as the mean±standard error (S.E.).

[3] = in vivo; parameters: species or system Beagle dogs; settings: dog, in vivo; for concentration at 15 min post-infusion / concentration at 15 min / Kp at 2 h / Kp at 8 h: both sexes; for Kp at 2 h / Kp at 8 h: Kp [tissue]/[plasma]
Description: The test article will be administered to 8 Beagle dogs by intravenous infusion over two hours (Part A) or eight hours (Part B) as shown in Table 6.
as §3, with “Multiple” for “Fifteen minutes following either the 2 hour or 8 hour infusion, blood, urine and bile samples were taken, prior to the dogs being necropsied and organs removed for the isolation of tissues. Multiple”

[4] = rat, rodent studies; cited from earlier work
[5] = tested on: MPTP-induced depletion of DA and DOPAC; settings: 80 mg/kg i.p.; cited from earlier work

clearance ([1]; both sexes, Beagle): 343 mL/min/kg
Cmax ([1]; both sexes, Beagle, Cmax): 15 ng/mL
MRT ([1]; both sexes, beagle): 36 min
Vd ([1]; both sexes, beagle): 12.7 L/kg
clearance ([1]; both sexes, beagle): 343 mL/min/kg
half-life ([1]; both sexes, beagle): 24 min
AUC ([1]; both sexes, beagle, AUC): 65 ng·h/mL
AUC ([1]; both sexes, beagle, AUC (estimated PK parameter)): 485 ng·h/mL
Cmax ([1]; both sexes, beagle, Cmax): 46 ng/mL
Cmax ([1]; both sexes, beagle, Cmax (estimated PK parameter)): 233 ng/mL
AUC ([1]; both, Beagle): 52 ng·h/mL
Ke ([1]; both, Beagle): 1.6 h⁻¹
concentration at 15 min ([2]; both sexes, Beagle, Plasma level): 0 ng/mL
Plasma level ([2]; both, beagle, 15 min): 0 ± 0 ng/mL
concentration at 15 min post-infusion ([3]; Beagle, Tissue analysis, Liver): 28.4 ng/g
concentration at 15 min post-infusion ([3]; Beagle, Tissue analysis, Spleen): 22.9 ng/g
concentration at 15 min ([3]; Beagle, Tissue level, Brain Stem): 0.3 ng/g
concentration at 15 min ([3]; beagle, Average tissue concentration, Bladder): 0.66 ng/g
concentration at 15 min ([3]; beagle, Average tissue concentration, Brainstem): 0.45 ng/g
concentration at 15 min ([3]; beagle, Average tissue concentration, Heart): 0.47 ng/g
concentration at 15 min ([3]; beagle, Average tissue concentration, Intestinal wall): 1.14 ng/g
concentration at 15 min ([3]; beagle, Average tissue concentration, Striatum): 0.48 ng/g
Kp at 2 h ([3]; beagle, Brain Stem): 0.0081
Kp at 8 h ([3]; beagle, Brain Stem): 0.0389
Kp at 2 h ([3]; beagle, Cortex, Brain): 0.0134
Kp at 8 h ([3]; beagle, Cortex, Brain): 0.0544
Kp at 2 h ([3]; beagle, Heart): 0.0087
Kp at 8 h ([3]; beagle, Heart): 0.0503
Kp at 2 h ([3]; beagle, Hippocampus): 0.0016
Kp at 8 h ([3]; beagle, Hippocampus): 0.0007
Kp at 2 h ([3]; beagle, Intestinal Wall): 0.0206
Kp at 8 h ([3]; beagle, Intestinal Wall): 0.0564
Kp at 2 h ([3]; beagle, Kidney): 0.0161
Kp at 8 h ([3]; beagle, Kidney): 0.186
Kp at 2 h ([3]; beagle, Liver): 0.0329
Kp at 8 h ([3]; beagle, Liver): 1.9
Kp at 2 h ([3]; beagle, Lungs): 0.413
Kp at 8 h ([3]; beagle, Lungs): 16.8
Kp at 2 h ([3]; beagle, Muscle): 0.0034
Kp at 8 h ([3]; beagle, Muscle): 0.053
Kp at 2 h ([3]; beagle, Pancreas): 0.0166
Kp at 8 h ([3]; beagle, Pancreas): 0.191
Kp at 2 h ([3]; beagle, Striatum): 0.0087
Kp at 8 h ([3]; beagle, Striatum): 0.0329
Kp at 2 h ([3]; beagle, Urinary Bladder): 0.0125
Kp at 8 h ([3]; beagle, Urinary Bladder): 0.152
concentration at 15 min ([3]; beagle, Tissue analysis, Brainstem): 0.45 ng/g
concentration at 15 min ([3]; beagle, Tissue analysis, Cortex): 0.73 ng/g
concentration at 15 min ([3]; beagle, Tissue level, Cortex, Brain): 0.52 ng/g
concentration at 15 min ([3]; beagle, Tissue level, Heart): 0.49 ng/g
Average tissue concentration, Bladder ([3]; both, beagle, 15 min): 0.87 ng/gm
Average tissue concentration, Brainstem ([3]; both, beagle, 15 min): 0.57 ng/gm
Average tissue concentration, Cortex ([3]; both, beagle, 15 min): 0.80 ng/gm
Average tissue concentration, Heart ([3]; both, beagle, 15 min): 0.74 ng/gm
Average tissue concentration, Striatum ([3]; both, beagle, 15 min): 0.49 ng/gm
Tissue analysis, Brainstem ([3]; both, beagle, 15 min): 0.32
Tissue analysis, Cortex ([3]; both, beagle, 15 min): 0.52
Tissue level, Brain Stem ([3]; both, beagle, 15 min): 0.41 ng/g
Tissue level, Cortex, Brain ([3]; both, beagle, 15 min): 0.72 ng/g
Tissue level, Heart ([3]; both, beagle, 15 min): 0.67 ng/g
Kp [tissue]/[plasma], Liver ([3]; both, beagle, 8 h): 1.9047
Kp [tissue]/[plasma], Lungs ([3]; both, beagle, 8 h): 16.8289
Compound: COc1cc(/C=C/C(=O)CC(=O)/C=C/c2ccc(O)c(OC)c2)ccc1O [Curcumin, 1,7-bis(4-hydroxy-3-methoxyphenyl)-1,6-heptadiene-3,5-dione, reference compound]
Kp values [4]: 0.06-0.25
MPTP-induced depletion of DA and DOPAC [5]: significantly reversed
